Laboratory results taken from US10688093B2, “Methods, compositions, and uses of novel Fyn kinase inhibitors” (priority 2015, dated 2020).
pIC50: −log10 of the molar value.

Target: full-length recombinant human FYN A (Homo sapiens (Human), UniProt P06241)
Experiment: ADP-Glo Kinase Assay of FYN kinase inhibition
Type: biochemical
Settings: primary screen, initial compounds
Summary of the method: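 ADP-Glo read-out of peptide phosphorylation after 90 min RT with 12.5 pmol ATP and 100 pg 12-mer substrate. Enzyme was N-GST full-length human FYN A from insect cells, 3 pg, pre-incubated 30 min with compound, 10 points from 10 μM top, 3-fold steps; IC50 from curve.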

Sequence of full-length recombinant human FYN A (P06241 whole entry): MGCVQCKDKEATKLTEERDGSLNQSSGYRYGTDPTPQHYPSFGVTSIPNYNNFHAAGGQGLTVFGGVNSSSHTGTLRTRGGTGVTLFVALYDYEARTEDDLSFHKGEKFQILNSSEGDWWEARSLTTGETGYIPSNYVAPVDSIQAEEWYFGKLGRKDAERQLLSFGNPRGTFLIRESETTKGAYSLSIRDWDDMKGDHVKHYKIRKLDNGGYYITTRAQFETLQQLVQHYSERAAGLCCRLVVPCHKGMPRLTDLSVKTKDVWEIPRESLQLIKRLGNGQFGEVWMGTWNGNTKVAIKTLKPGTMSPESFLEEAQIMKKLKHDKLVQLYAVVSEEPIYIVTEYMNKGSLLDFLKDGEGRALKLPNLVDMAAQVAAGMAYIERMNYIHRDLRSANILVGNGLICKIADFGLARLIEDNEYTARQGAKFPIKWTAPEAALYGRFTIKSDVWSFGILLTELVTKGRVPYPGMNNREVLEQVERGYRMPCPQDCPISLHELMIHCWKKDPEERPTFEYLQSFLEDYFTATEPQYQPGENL

| SMILES | pIC50 |
| --- | --- |
| CC(=O)c1cccc(-c2cnc3cnc(-c4ccc(C(=O)NCCN(C)C)cc4)cn23)c1 [388_4145_0327, 4-[3-(3-acetylphenyl)imidazo[1,2-a]pyrazin-6-yl]-N-(2-dimethyl-aminoethyl) benzamide] | 5.39 |
| Oc1ccc(-c2cn3c(-c4cccs4)cnc3cn2)cc1 [388_4147_0080, 4-[3-(2-thienyl)imidazo [1,2-a]pyrazin-6-yl]phenol] | 5.20 |
| CN(C)CCNC(=O)c1ccc(-c2cn3c(-c4cccs4)cnc3cn2)cc1 [388_4147_0327, N-(2-dimethylamino-ethyl)-4-[3-(2-thienyl)imidazo [1,2-a]pyrazin-6-yl]benzamide] | 5.07 |
| c1csc(-c2cn3c(-c4cccs4)cnc3cn2)c1 [388_4147_4147, 3,6-bis(2-thienyl)imidazo [1,2-a]pyrazine] | 5.30 |
| Nc1ccc(-c2cn3c(-c4cccs4)cnc3cn2)cn1 [388_4147_7905, 5-[3-(2-thienyl)imidazo [1,2-a]pyrazin-6-yl]pyridin-2-amine] | 5.09 |
| COc1cc(OC)cc(-c2cnc3cnc(-c4ccc(C(=O)NCCCN(C)C)cc4)cn23)c1 [388_7492_0180, 4-[3-(3,5-dimethoxyphenyl)imidazo[1,2-a]pyrazin-6-yl]-N-[3-(dimethyl-amino)propyl] benzamide] | 5.17 |
| CCCN1CCc2nc(Nc3cc(OC)c(OC)c(OC)c3)ncc2C1 [582_9377_5632, 6-propyl-N-(3,4,5-trimethoxy-phenyl)-7,8-dihydro-5H-pyrido[4,3-d]pyrimidin-2-amine] | 4.83 |
| CCNC(=O)N1CCc2nc(Nc3cc(OC)c(OC)c(OC)c3)ncc2C1 [582_9377_5725, N-ethyl-2-(3,4,5-trimethoxy-anilino)-7,8-dihydro-5H-pyrido[4,3-d]pyrimidine-6-carboxamide] | 5.37 |
| COc1ccccc1C(=O)N1Cc2cnc(Nc3cccc(N(C)C)c3)nc2C1 [585_9372_5053, [2-[3-(dimethylamino)anilino]-5,7-dihydropyrrolo [3,4-d]pyrimidin-6-yl]-(2-methoxyphenyl) methanone] | 5.00 |

Same assay, conditions: secondary screen, re-synthesized and expanded compounds

| SMILES | pIC50 |
| --- | --- |
| c1csc(CNc2ccc3ncc(-c4ccncc4)n3n2)c1 [BF000145941, 3-(4-pyridyl)-N-(2-thienyl-methyl)-[1,2-a]pyridazin-6-amine] | 6.98 |
| c1cc(-c2cnc3ccc(NCc4ccc5c(c4)OCO5)nn23)ccn1 [BF000146108, N-(1,3-benzodioxol-5-ylmethyl)-3-(4-pyridyl)-imidazo[1,2-b]pyridazin-6-amine] | 6.53 |
| COc1ccc(-c2cnc3ccc(NCc4ccc5c(c4)OCO5)nn23)cc1OC [BF000146114, N-(1,3-benzodioxol-5-ylmethyl)-3-[3,4-dimethoxy-phenyl)-imidazo[1,2-b]pyridazin-6-amine] | 5.21 |
| COc1cc(-c2cnc3ccc(NCc4ccc5c(c4)OCO5)nn23)ccc1O [BF000146126, 4-[6-(1,3-benzodioxol-5-ylmethyl-amino)-imidazo[1,2-b]pyridazin-3-yl]-2-methoxy-phenol] | 5.88 |
| Nc1cccc(-c2cnc3ccc(NC4CCOCC4)nn23)c1 [BF000146142, 3-(3-aminophenyl)-N-tetrahydro-pyran-4-yl-imidazo[1,2-b]pyridazin-6-amine] | 5.85 |
| COc1ccc(-c2cnc3ccc(NC4CCOCC4)nn23)cc1OC [BF000146153, 3-(3,4-dimethoxy-phenyl)-N-tetrahydro-pyran-4-yl-imidazo[1,2-b]pyridazin-6-amine] | 6.32 |
| CC(=O)Nc1cccc(-c2cnc3ccc(NC4CCOCC4)nn23)c1 [BF000146155, N-[3-[6-(tetra-hydropyran-4-ylamino)-imidazo[1,2-b]pyridazin-3-yl)phenyl]-acetamide] | 6.40 |
| COc1cccc(-c2cnc3ccc(NC4CCOCC4)nn23)c1 [BF000146183, 3-(3-methoxy-phenyl)-N-tetrahydro-pyran-4-yl-imidazo[1,2-b]pyridazin-6-amine] | 6.08 |
| OCCCNc1ccc2ncc(-c3ccc4c(c3)OCO4)n2n1 [BF000146218, 3-[[3-(1,3-benzodioxol-5-yl)-imidazo[1,2-b]pyridazin-6-yl]amino]-propan-1-ol] | 6.15 |
| COc1ccc(-c2cnc3ccc(NCCCO)nn23)cc1OC [BF000146224, 3-[[3-(3,4-dimethoxy-phenyl)-imidazo[1,2-b]pyridazin-6-yl]-amino]-propan-1-ol] | 6.14 |
| COc1cc(-c2cnc3ccc(NCCCO)nn23)ccc1O [BF000146250, 4-[6-(3-hydroxy-propylamino)-imdazo[1,2-b]pyridazin-3-yl]-2-methoxy-phenol] | 6.69 |
| CC(=O)Nc1cccc(-c2cnc3ccc(N[C@H](CO)C(C)C)nn23)c1 [BF000146300, N-[3-[6-[[(1S)-1-(hydroxy-methyl)-2-methyl-propyl]-amino]-imidazo[1,2-b]pyridazin-3-yl]-phenyl]acetamide] | 6.10 |
| COc1cc(-c2cnc3ccc(N[C@H](CO)C(C)C)nn23)ccc1O [BF000146319, 4-[6-[[(1S)-1-(hydroxy-methyl)-2-methyl-propyl]-amino]-imidazo[1,2-b]pyridazin-3-yl]-2-methoxy-phenol] | 6.35 |
| c1ccc(CNc2ccc3ncc(-c4ccc5c(c4)OCO5)n3n2)nc1 [BF000146330, 3-(1,3-benzodioxol-5-yl)-N-(2-pyridyl-methyl)-imidazo[1,2-b]pyridazin-6-amine] | 6.45 |
| COc1ccc(-c2cnc3ccc(NCc4cccs4)nn23)cc1OC [BF000146992, 3-(3,4-dimetboxy-phenyl)-N-(2-thienyl-methyl)-imidazo[1,2-b]pyridazin-6-amine] | 6.14 |
| CCCNc1ccc2ncc(-c3ccncc3)n2n1 [BF000147056, N-propyl-3-(4-pyridyl)-imidazo[1,2-b]pyridazin-6-amine] | 6.66 |
| CCCNc1ccc2ncc(-c3ccc(OC)c(OC)c3)n2n1 [BF000147061, 3-(3,4-dimethoxy-phenyl)-N-propyl-imidazo[1,2-b]pyridazin-6-amine] | 6.54 |
| CCCNc1ccc2ncc(-c3cccc(O)c3)n2n1 [BF000147075, 3-[6-(propylamino)-imidazo[1,2-b]pyridazin-3-yl]phenol] | 6.23 |
| CCCNc1ccc2ncc(-c3ccc(O)c(OC)c3)n2n1 [BF000147080, 2-methoxy-4-[6-(propyl-amino)-imidazo[1,2-b]pyridazin-3-yl]phenol] | 7.09 |
| CC(=O)c1cccc(-c2cnc3ccc(NCc4ccc5c(c4)OCO5)nn23)c1 [BF000147140, 1-[3-[6-(1,3-benzodioxol-5-ylmethyl-amino)-imidazo[1,2-b]pyridazin-3-yl]phenyl]-ethanone] | 5.50 |
| COc1cc(-c2cnc3ccc(NC4CCOCC4)nn23)ccc1O [BF000147168] | 6.95 |
| COc1cc(-c2cnc3ccc(NC4CCOCC4)nn23)cc(OC)c1OC [BF000147394, N-tetrahydro-pyran-4-yl-3-(3,4,5-trimethoxy-phenyl)-imidazo[1,2-b]pyridazin-6-amine] | 6.30 |

Second part, the compound after the results:

| pIC50 | SMILES |
| --- | --- |
| 6.39 | CCCNc1ccc2ncc(-c3cccc(C(C)=O)c3)n2n1 [BF000147088, 1-[3-[6-(propyl-amino)-imidazo[1,2-b]pyridazin-3-yl]phenyl]-ethanone] |
| 6.31 | COc1ccc(-c2cnc3ccc(NCc4ccccn4)nn23)cc1OC [BF000147233, 3-(3,4-dimethoxy-phenyl)-N-(2-pyridyl-methyl)-imidazo[1,2-b]pyridazin-6-amine] |
| 5.88 | COc1cc(-c2cc(-c3ccccc3)cnc2N)cc(OC)c1OC [BF000312489, 5-phenyl-3-(3,4,5-trimethoxy-phenyl)-pyridin-2-amine] |
| 6.63 | COc1cc(-c2cc(-c3ccc(N4CCN(C)CC4)cc3)cnc2N)cc(OC)c1OC [BF000312520, 5-[4-(4-methyl-piperazin-1-yl)phenyl]-3-(3,4,5-trimethoxy-phenyl)-pyridin-2-amine] |
| 6.15 | COc1cc(-c2cc(-c3ccc(OCCCN(C)C)nc3)cnc2N)cc(OC)c1OC [BF000312521, 5-[6-(3-(dimethyl-amino)-propoxy]-3-pyridyl]-3-(3,4,5-trimethoxy-phenyl)-pyridin-2-amine] |
| 6.28 | COc1cc(-c2cc(-c3cccc(O)c3)cnc2N)cc(OC)c1OC [BF000312527, 3-[6-amino-5-(3,4,5-trimethoxy-phenyl)-3-pyridyl]-phenol] |
| 6.31 | COc1cc(-c2cc(-c3cccc(C(N)=O)c3)cnc2N)cc(OC)c1OC [BF000312539, 3-[6-amino-5-(3,4,5-trimethoxy-phenyl)-3-pyridyl]-benzamide] |
| 6.34 | COc1cc(-c2cc(-c3ccc(C(N)=O)cc3)cnc2N)cc(OC)c1OC [BF000312540, 4-[6-amino-5-(3,4,5-trimethoxy-phenyl)-3-pyridyl]-benzamide] |
| 6.42 | COc1cc(-c2cc(-c3ccc(C(=O)NC4CC4)cc3)cnc2N)cc(OC)c1OC [BF000312541, 4-[6-amino-5-(3,4,5-trimethoxy-phenyl)-3-pyridyl]-N-cyclopropyl-benzamide] |
| 6.00 | COc1cc(-c2cc(-c3cccc(C(=O)NCCO)c3)cnc2N)cc(OC)c1OC [BF000312542, 3-[6-amino-5-(3,4,5-trimethoxy-phenyl)-3-pyridyl]-N-(2-hydroxy-ethyl)-benzamide] |
| 6.17 | COc1cc(-c2cc(-c3ccc(S(C)(=O)=O)cc3)cnc2N)cc(OC)c1OC [BF000312544, 5-(4-methyl-sulfonyl-phenyl)-3-(3,4,5-trimethoxy-phenyl)-pyridin-2-amine] |
| 6.25 | COc1cc(-c2cc(-c3cccc(NS(C)(=O)=O)c3)cnc2N)cc(OC)c1OC [BF000312545, N-[3-[6-amino-5-(3,4,5-trimethoxy-phenyl)-3-pyridyl]-phenyl]-methane-sulfonamide] |
| 6.92 | COc1cc(-c2cc(-c3ccc(N4CCN(C)CC4)cc3)cnc2N)ccc1O [BF000313028, 4-[2-amino-5-[4-(4-methylpiperazin-1-yl)phenyl]-3-pyridyl]-2-methoxy-phenol] |
| 6.94 | COc1cc(-c2cc(-c3cc(OC)c(OC)c(OC)c3)cnc2N)ccc1O [BF000313035, 4-[2-amino-5-(3,4,5-trimethoxy-phenyl)-3-pyridyl]-2-methoxy-phenol] |
